The values that follow come from article doi:10.1101/2025.07.08.663693v1 (biorxiv, 2025).

One assay addresses T1, hSLIT2-His (Homo sapiens, UniProt O94813).
T1 sequence (O94813 31-1529): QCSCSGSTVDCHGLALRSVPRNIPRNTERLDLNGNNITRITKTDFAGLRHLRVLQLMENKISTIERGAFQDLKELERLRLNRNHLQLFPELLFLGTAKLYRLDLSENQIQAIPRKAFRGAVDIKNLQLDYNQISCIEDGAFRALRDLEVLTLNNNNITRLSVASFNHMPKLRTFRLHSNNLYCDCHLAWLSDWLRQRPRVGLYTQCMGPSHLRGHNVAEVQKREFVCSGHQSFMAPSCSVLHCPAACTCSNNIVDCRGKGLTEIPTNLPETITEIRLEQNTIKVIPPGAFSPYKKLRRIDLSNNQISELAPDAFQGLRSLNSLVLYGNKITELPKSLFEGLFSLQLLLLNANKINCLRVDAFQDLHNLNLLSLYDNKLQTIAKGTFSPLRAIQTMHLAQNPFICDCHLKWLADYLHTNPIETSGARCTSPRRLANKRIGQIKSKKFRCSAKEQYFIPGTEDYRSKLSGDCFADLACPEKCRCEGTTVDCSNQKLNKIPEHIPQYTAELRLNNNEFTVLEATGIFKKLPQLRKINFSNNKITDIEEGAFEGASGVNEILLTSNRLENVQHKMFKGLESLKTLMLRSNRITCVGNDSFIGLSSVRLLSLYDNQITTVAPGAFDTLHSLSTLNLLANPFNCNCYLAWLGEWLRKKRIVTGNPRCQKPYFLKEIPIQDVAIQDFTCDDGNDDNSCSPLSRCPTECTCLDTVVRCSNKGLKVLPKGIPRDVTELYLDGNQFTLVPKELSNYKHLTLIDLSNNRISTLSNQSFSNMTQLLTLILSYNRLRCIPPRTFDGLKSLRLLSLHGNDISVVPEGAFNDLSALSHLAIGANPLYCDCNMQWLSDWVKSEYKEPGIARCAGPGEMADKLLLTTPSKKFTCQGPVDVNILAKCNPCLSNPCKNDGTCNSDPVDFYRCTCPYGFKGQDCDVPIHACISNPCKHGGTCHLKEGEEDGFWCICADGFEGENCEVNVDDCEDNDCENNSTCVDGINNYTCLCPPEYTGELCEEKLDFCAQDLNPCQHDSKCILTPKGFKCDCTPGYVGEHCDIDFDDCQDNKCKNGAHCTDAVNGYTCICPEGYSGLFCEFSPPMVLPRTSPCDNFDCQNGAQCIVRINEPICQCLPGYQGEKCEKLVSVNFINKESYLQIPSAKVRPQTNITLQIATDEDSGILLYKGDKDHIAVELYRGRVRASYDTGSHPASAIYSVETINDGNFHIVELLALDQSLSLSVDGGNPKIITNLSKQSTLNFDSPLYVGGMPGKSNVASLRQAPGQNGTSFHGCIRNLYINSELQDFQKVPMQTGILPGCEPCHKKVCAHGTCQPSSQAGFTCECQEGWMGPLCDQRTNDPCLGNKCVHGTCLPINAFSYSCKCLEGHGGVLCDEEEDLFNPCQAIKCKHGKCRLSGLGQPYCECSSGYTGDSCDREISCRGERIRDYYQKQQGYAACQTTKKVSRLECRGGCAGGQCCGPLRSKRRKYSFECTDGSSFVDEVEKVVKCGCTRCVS
The experiment in a line: TRIC/MST dose response. It is filed as binding.

The next assay deals with T2, SLIT2/ROBO1 (Homo sapiens, UniProt O94813).
T2 sequence (O94813 31-1529): T1 sequence (O94813 31-1529)
T2 sequence (Q9Y6N7 26-897 partner limits assumed): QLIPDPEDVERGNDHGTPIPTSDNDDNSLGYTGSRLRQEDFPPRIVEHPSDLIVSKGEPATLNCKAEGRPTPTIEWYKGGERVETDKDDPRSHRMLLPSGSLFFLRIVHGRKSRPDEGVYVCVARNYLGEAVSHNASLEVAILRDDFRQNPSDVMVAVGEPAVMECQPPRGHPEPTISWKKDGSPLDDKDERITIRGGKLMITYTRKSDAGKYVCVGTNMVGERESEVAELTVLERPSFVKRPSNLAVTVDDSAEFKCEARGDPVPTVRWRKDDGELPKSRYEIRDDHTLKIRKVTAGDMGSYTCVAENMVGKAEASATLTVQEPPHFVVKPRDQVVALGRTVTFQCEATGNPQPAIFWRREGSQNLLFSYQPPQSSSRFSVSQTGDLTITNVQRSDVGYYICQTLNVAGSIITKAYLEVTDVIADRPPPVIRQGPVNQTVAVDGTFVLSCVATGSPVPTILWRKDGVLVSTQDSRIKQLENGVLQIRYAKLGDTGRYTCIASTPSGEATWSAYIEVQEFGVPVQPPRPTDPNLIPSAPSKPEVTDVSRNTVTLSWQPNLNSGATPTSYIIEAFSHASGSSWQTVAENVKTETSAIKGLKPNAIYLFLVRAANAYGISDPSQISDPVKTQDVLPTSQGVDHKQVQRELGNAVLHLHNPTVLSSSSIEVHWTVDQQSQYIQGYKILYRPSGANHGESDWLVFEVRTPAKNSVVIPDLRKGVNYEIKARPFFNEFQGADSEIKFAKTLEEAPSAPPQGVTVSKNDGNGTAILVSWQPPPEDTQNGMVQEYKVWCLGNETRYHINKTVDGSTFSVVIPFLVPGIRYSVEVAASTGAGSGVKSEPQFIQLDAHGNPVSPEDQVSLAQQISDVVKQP
The experiment in a line: TR-FRET SLIT2/ROBO1 interaction inhibition. Type of assay: binding. On the technique in general: Time-resolved FRET reads energy transfer from a long-lived donor to a nearby acceptor.

By Kd is commonly meant the equilibrium constant for the complex coming apart. A high value points to a looser complex. For orientation: IC50 means the concentration that inhibits the measured activity by half. The low end stands for greater potency in that assay, the high end for weaker potency in that assay. Take `C=C(c1ccc(C(=O)O)cc1)c1cc2c(cc1C)C(C)(C)CCC2(C)C` [bexarotene]: at hSLIT2-His, the dissociation constant Kd is 2620 nM. Moreover, on SLIT2/ROBO1, the half-inhibitory concentration (IC50) worked out at 22.8 ± 3.85 µM.
